Like-named read-outs stand apart in the source and are kept apart here.
What was measured:
soybean LOX-1 [1] = target: T1, soybean LOX-1 (Glycine max, UniProt P08170); assay: Soybean LOX-1 enzyme inhibitory assessment (DMAB-MBTH colour assay, linoleic acid substrate); type: biochemical; conditions: from sigmoidal dose-response curves, n = 3; read-out: IC50, soybean LOX-1 inhibition
T1 construct: purchased Sigma-Aldrich
T1 sequence (P08170 1-839): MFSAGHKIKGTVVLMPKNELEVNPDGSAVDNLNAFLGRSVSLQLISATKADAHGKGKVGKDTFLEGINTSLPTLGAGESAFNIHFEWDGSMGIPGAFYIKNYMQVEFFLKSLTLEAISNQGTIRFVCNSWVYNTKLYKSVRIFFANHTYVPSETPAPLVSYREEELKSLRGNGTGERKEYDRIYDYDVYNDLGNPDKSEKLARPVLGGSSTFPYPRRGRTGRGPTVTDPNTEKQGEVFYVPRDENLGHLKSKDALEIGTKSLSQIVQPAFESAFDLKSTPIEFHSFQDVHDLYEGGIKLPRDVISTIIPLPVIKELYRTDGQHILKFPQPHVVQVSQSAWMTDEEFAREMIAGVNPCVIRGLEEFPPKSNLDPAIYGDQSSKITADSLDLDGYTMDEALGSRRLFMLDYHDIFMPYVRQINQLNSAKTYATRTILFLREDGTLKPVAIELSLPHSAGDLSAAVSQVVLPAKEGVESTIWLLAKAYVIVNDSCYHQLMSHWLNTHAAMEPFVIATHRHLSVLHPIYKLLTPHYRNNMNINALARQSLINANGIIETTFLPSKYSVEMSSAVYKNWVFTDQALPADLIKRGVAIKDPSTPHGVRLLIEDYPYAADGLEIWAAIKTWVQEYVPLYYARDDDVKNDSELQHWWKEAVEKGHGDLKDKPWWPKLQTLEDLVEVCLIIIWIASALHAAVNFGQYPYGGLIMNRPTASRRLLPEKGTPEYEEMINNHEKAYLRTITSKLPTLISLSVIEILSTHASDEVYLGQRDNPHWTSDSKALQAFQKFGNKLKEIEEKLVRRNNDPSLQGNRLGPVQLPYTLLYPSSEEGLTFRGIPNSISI
Method: Linoleic acid and two assay solutions (A and B) were prepared in advance. Solution A was 50 mM 3-(dimethylamino)benzoic acid (DMAB) in l00 mM phosphate buffer (pH 7.0). Solution B was a mixture of l0 mM 3-methyl-2-benzothiazolinonehydrazone hydrochloride (MBTH; 3 ml), and hemoglobin (5 mg ml^−1, 3 ml) in 50 mM phosphate buffer at pH 5.0 (25 ml). A linoleic acid solution was prepared by mixing 5.6 mg linoleic acid with 0.5 ml methanol and then diluted with 100 mM KOH to a final volume of 5 ml (4 mM). In the assay, a solution of inhibitors in dimethyl sulfoxide (DMSO) (12.5 μl), soybean LOX-1 (4000 units ml^−1 in 50 mM phosphate buffer pH 7.0; 25 μl), and phosphate buffer, pH 7.0 (50 mM; 435 μl) were mixed in 48-well plates, and pre incubation was carried out for 10 min at 30 °C. A control test was performed with the same volume of DMSO. After the pre incubation, linoleic acid solution (25 μl) was added to start the peroxidation reaction at 30 °C, and 10 min later, solution A (135 μl) and then solution B (65 μl) were added to start the color formation. After 3 min, 100 μl of a 2% sodium dodecyl sulphate (SDS) solution was added to terminate the reaction. The absorbance at 598 nm was compared with the control. These experiments were performed in triplicate and the data were analyzed using GraphPad Prism 6.0 (San Diego, USA).
Lipoxygenase inhibitory activity of 4-MMPB and its analogs was assessed on soybean LOX-1 and the inhibitory potencies (IC50 values) of the mentioned compounds were calculated from their sigmoidal dose–response curves (Fig. 2).

PC-3 cells [2] = assay: MTT cytotoxicity assay on PC-3 cells; type: cell-based, human; conditions: PC-3, MTT
Method: (§1) Two mg of each compound was dissolved in 100 μl hydrochloric acid (HCl 0.3 N) to make a primary stock solution. Different concentrations (1.56–50 μg ml^−1) were then prepared by serial dilution from the primary stock solution and further diluted in the culture medium.
(§2) PC-3 cells were obtained from Pasteur Institute (Tehran, Iran) and routinely cultured in RPMI 1640 supplemented with 10% FBS. In order to investigate the toxicity of the compounds on normal cells, in vitro experiments were also performed on HDF cells. These cells were kindly provided by Academic Center for Education, Culture and Research (ACECR, Mashhad, Iran) and grown in DMEM supplemented with 10% FBS. Both cell lines were kept at 37 °C containing 5% CO2 in a humidified incubator.
(§3) The MTT reduction assay is a standard quantitative method to evaluate cytotoxicity. This assay measures cellular dehydrogenases, and is considered as an easy, safe and highly reproducible method. Viable cells reduce yellow tetrazolium salt to purple formazan crystals and thus the color change serves as a marker reflecting cell viability.
(§4) PC-3 and HDF cells were seeded in 96-well plates (NEST, China) at a density of 6000 and 8000 cells per well, respectively and incubated at 37 °C with 5% CO2. […] After 24, 48 and 72 h of treatments, 20 μl MTT solution (5 mg ml^−1 in PBS; phosphate buffered saline) was added to each well, and cells were incubated in the dark for 3–4 h. The media were then removed and purple crystals were dissolved in 160 μl DMSO. The absorbance in each well was measured at 540 nm as reference wavelength in an enzyme-linked immunosorbent assay (ELISA) reader (Awareness Technology, USA) and relative optical density (OD) values were recorded. The percentage of viable cells was calculated using the following equation [49]: Cell viability%=100×ODmeanof treated cells-ODmeanblank/ODmeanof negative control cellsHCl0.3 N-ODmeanblank.

HDF cells = assay: MTT cytotoxicity assay on HDF normal cells; type: cell-based, human
Method: as §1, §2, §3, §4

PC-3 cells [3] = assay: Flow cytometric analysis of cell death (Annexin V-FITC/PI) in PC-3 cells; type: cell-based, human; conditions: for change of Q2 (Annexin V positive/PI positive) population after co-treatment with deferoxamine: PC-3, compared with compound only; for percentage of early and late apoptotic/ferroptotic cells (Q3+Q2): PC-3, treated with IC50 value of the compound, 24 h, control 0.133%
Method: To determine the mechanism of cell death induced by 4-MMPB analogs, flow cytometry was employed using the Annexin V-FITC kit with PI (BioLegend, San Diego, USA) according to the manufacturer’s instructions. We performed co-treatment experiments with the compounds and a ferroptosis inhibitor (IC50 values of 4-PMPB + , 4-EMPB + , and 4-MMPB + deferoxamine (80 µM)) on PC-3 cells, to distinguish between ferroptosis and apoptosis mechanisms. […] Then the cells were collected by trypsinization (0.25% trypsin-1 mM EDTA), washed twice with PBS, followed by centrifugation, and resuspended in a binding buffer. Samples were stained with Annexin V-FITC/ PI followed by 15 min incubation at room temperature. Finally, cells were subjected to flow cytometry (BD Accuri C6, San Jose, USA) and the data were analyzed by FlowJo 7.6.1 software (Ashland, USA). Moreover, PC-3 cells treated with 0.3 N HCl were used as a control to eliminate the effects of solvent.

[4] = In vivo side effects evaluation (body weight, serum biochemistry, H&E histology); set-up: species or system C57BL/6 mice; conditions: for serum AST and ALT levels: 50 mg kg^-1, compared with immunosuppressed control group; for histological analysis of major organs (liver, kidney, spleen): H&E, day 15 after treatments
soybean LOX-1 [5] = target: T1, soybean LOX-1; set-up: method as in doi:10.1007/s00044-013-0506-7; conditions: read-out: IC50 against soybean LOX-1; cited from earlier work
PC-3 tumors = assay: Anti-tumor effect in PC-3 xenograft tumor model in immunocompromised C57BL/6 mice
15-LOX-1 = conditions: read-out: IC50 against 15-LOX-1; cited from earlier work
15-lipoxygenase = target: 15-lipoxygenase; set-up: method as in PMID 17210254; conditions: read-out: IC50, 15-lipoxygenase inhibition; cited from earlier work
[6] = 24 h, read-out: IC50 (µM) ± SD (PC-3) 24 h
[7] = 48 h, read-out: IC50 (µM) ± SD (PC-3) 48 h
[8] = 72 h, read-out: IC50 (µM) ± SD (PC-3) 72 h
[9] = 24 h, read-out: IC50 (µM) ± SD (HDF) 24 h
[10] = 48 h, read-out: IC50 (µM) ± SD (HDF) 48 h
[11] = 72 h, read-out: IC50 (µM) ± SD (HDF) 72 h
[12] = 10 and 50 mg kg^-1, 15 days follow up
[13] = high dose 50 mg kg^-1, 15 days, vs PBS and 0.3 N HCl controls

Compound: CCCc1nc(N2CCN(C)CC2)nc2c1Sc1ccccc1N2 [4-PMPB, 4-propyl-2-(4-methylpiperazinyl)pyrimido[4,5-b]benzothiazine]
- IC50 (soybean LOX-1 [1]): 8.6 µM
- IC50 (PC-3 cells [2]; [6]): 122 ± 2.62 µM
- IC50 (PC-3 cells [2]; [7]): 88.5 ± 2.31 µM
- IC50 (PC-3 cells [2]; [8]): 57.6 ± 2.12 µM
- cytotoxicity on normal (HDF) cells, in words (HDF cells): no obvious cytotoxicity
- IC50 (HDF cells; [9]): 1641.1 ± 0.075 µM
- IC50 (HDF cells; [10]): 1443.7 ± 0.055 µM
- IC50 (HDF cells; [11]): 1028.9 ± 0.139 µM
- change of Q2 (Annexin V positive/PI positive) population after co-treatment with deferoxamine (PC-3 cells [3]): markedly decreased
- percentage of early and late apoptotic/ferroptotic cells (Q3+Q2) (PC-3 cells [3]): 52.38%
- serum AST and ALT levels [4]: significantly elevated
- body weight [4, 12]: no significant changes
- histological analysis of major organs (liver, kidney, spleen) [4]: no obvious tissue damages
- IC50 (soybean LOX-1 [5]): 9 µM
- tumor growth (PC-3 tumors; [13]): effectively inhibited

Compound: CC(C)=CCCC(C)=CCCC(C)=CCOc1cccc2oc(=O)ccc12 [5-farnesyloxycoumarin]
- IC50 (15-LOX-1): 8.32 µM

Compound: Cc1nc(N2CCN(C)CC2)nc2c1Sc1ccccc1N2 [4-MMPB, 4-Methyl-2-(4-methylpiperazinyl)pyrimido[4,5-b]benzothiazine]
- IC50 (soybean LOX-1 [1]): 17.1 µM
- IC50 (PC-3 cells [2]; [6]): 101 ± 2.41 µM
- IC50 (PC-3 cells [2]; [7]): 55.6 ± 1.98 µM
- IC50 (PC-3 cells [2]; [8]): 40.8 ± 1.79 µM
- cytotoxicity on normal (HDF) cells, in words (HDF cells): weak cytotoxicity
- IC50 (HDF cells; [9]): 331 ± 3.33 µM
- IC50 (HDF cells; [10]): 284 ± 2.98 µM
- IC50 (HDF cells; [11]): 186 ± 2.81 µM
- change of Q2 (Annexin V positive/PI positive) population after co-treatment with deferoxamine (PC-3 cells [3]): markedly decreased
- percentage of early and late apoptotic/ferroptotic cells (Q3+Q2) (PC-3 cells [3]): 41.5%
- serum AST and ALT levels [4]: significantly elevated
- body weight [4, 12]: no significant changes
- histological analysis of major organs (liver, kidney, spleen) [4]: no obvious tissue damages
- IC50 (15-lipoxygenase): 18 µM
- tumor growth (PC-3 tumors; [13]): effectively inhibited

Compound: CCc1nc(N2CCN(C)CC2)nc2c1Nc1ccccc1S2 [4-EMPB, 4-Ethyl-2-(4-methylpiperazinyl)pyrimido[4,5-b]benzothiazine]
- IC50 (soybean LOX-1 [1]): 14.3 µM
- IC50 (PC-3 cells [2]; Homo sapiens, 24 h, read-out: IC50 (µM) ± SD (PC-3) 24 h): 107 ± 6.17 µM
- IC50 (PC-3 cells [2]; Homo sapiens, 48 h, read-out: IC50 (µM) ± SD (PC-3) 48 h): 75 ± 3.39 µM
- IC50 (PC-3 cells [2]; Homo sapiens, 72 h, read-out: IC50 (µM) ± SD (PC-3) 72 h): 49 ± 6.76 µM
- cytotoxicity on normal (HDF) cells, in words (HDF cells): weak cytotoxicity
- IC50 (HDF cells; Homo sapiens, 24 h, read-out: IC50 (µM) ± SD (HDF) 24 h): 545.5 ± 1.99 µM
- IC50 (HDF cells; Homo sapiens, 48 h, read-out: IC50 (µM) ± SD (HDF) 48 h): 361.7 ± 2.29 µM
- IC50 (HDF cells; Homo sapiens, 72 h, read-out: IC50 (µM) ± SD (HDF) 72 h): 258.9 ± 1.86 µM
- change of Q2 (Annexin V positive/PI positive) population after co-treatment with deferoxamine (PC-3 cells [3]): markedly decreased
- percentage of early and late apoptotic/ferroptotic cells (Q3+Q2) (PC-3 cells [3]): 60.9%
- serum AST and ALT levels [4]: significantly elevated
- body weight [4, 12]: no significant changes
- histological analysis of major organs (liver, kidney, spleen) [4]: no obvious tissue damages
- tumor growth (PC-3 tumors; [13]): effectively inhibited

Compound: N.N.[Cl][Pt][Cl] [Cisplatin, cisplatin, reference compound]
- IC50 (PC-3 cells [2]; [6]): 62.3 ± 1.74 µM
- IC50 (PC-3 cells [2]; [7]): 51.5 ± 1.43 µM
- IC50 (PC-3 cells [2]; [8]): 41.6 ± 1.11 µM
- IC50 (HDF cells; [9]): 153 ± 2.89 µM
- IC50 (HDF cells; [10]): 119 ± 2.56 µM
- IC50 (HDF cells; [11]): 71.1 ± 3.34 µM
- percentage of early and late apoptotic/ferroptotic cells (Q3+Q2) (PC-3 cells [3]): 67.8%
- histological analysis of major organs (liver, kidney, spleen) [4]: mild and local accumulation of inflammatory cells
- serum liver enzymes ([4]; cisplatin 2 mg kg^-1, compared to control group, p < 0.0001): significantly increased
- body weight ([4]; cisplatin 2 mg kg^-1, day 15, p < 0.01 vs other experimental groups): lowest body weights
- tumor growth (PC-3 tumors; cisplatin 2 mg kg^-1, 15 days, vs controls and lower-dose groups): significant decrease

From paper PMC8097893, “Investigating the effects of two novel 4-MMPB analogs as potent lipoxygenase inhibitors for prostate cancer treatment” (Journal of Biological Research, 2021)
